Test results reported in patent publication US8574605B2, “Methods for the preparation of concentrated aqueous bromine solutions and high activity bromine-containing solids” (Enviro Tech Chemical Services, Inc., priority 2004, dated 2013).

Assay: Dissolution of the crystalline solid in water
Type: physicochemical
Settings: weighed amount of crystalline mass dissolved in water
Protocol: The slurry was stirred and 50% NaOH (102.7 g) was slowly added as the flask was chilled in an ice bath to keep the temperature of the flask contents at around 75° F. Using a dropping funnel, elemental bromine (67.3 g) was dispensed at a rate of about one drop per second to the reaction medium, also with stirring and cooling to maintain a reaction temperature of 68° F. When the bromine addition was complete, the pH of the reaction medium was measured to be 1.97. A single charge of powdered trichloroisocyanuric acid (90.4% available Cl2) (33.1 g) was then delivered to the reaction medium through one of the necks of the flask. Stirring and cooling continued as normal as a fine powdery precipitate of cyanuric acid developed. After 10 minutes, 50% NaOH (11 g) was added dropwise in order to diminish the amount of bromine vapors that were fuming from the reaction medium. The cyanuric acid precipitate was then removed by vacuum filtration. […] The supernatant liquid above the crystals analyzed as 22.7% as Br2 (10.1% as Cl2), indicating the aqueous phase was losing active ingredient at the expense of crystal growth. […]

For `O.O=S(=O)([O-])NBr.[Na+]` [hydrated sodium N-bromosulfamate], the dissolution in water was “dissolved rapidly and completely”.
